Measurements reported in the supplement of paper PMC7840683.

System: HepaRG
Assay: LDH release cytotoxicity, % of total lysis control; higher = more cytotoxic
Conditions: 48 h
Method in brief: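 Eight-point half-log series of test chemicals, the highest at 100 µM, were given in duplicate for 48 h to single-lot HepaRG cells on collagen I-coated 96-well plates in serum-free induction medium with 0.5% DMSO. A Tecan Safire read resorufin fluorescence from CytoTox-ONE as a measure of LDH in 50 µL spent medium, with 0.1% Triton X in total lysis wells. Percent cytotoxicity was normalized to on-plate vehicle and total lysis controls and averaged over the duplicates.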

CS(=O)(=O)c1ccc(C(CC2CCC(=O)C2)C(=O)Nc2cnccn2)cc1Cl (centres undefined) [Piragliatin]
Conditions	LDH release cytotoxicity [%]
0.03162 µM	-0.668
0.1 µM	-1.54
0.3162278 µM	-0.661
1 µM	-1.64
3.16228 µM	-1.28
10 µM	-0.831
31.6228 µM	-1.24
100 µM	-0.692

CN(CC(CC[N+]12CCC(C3CCCCC3)(CC1)CC2)c1ccc(Cl)c(Cl)c1)C(=O)c1cc(C(F)(F)F)cc(C(F)(F)F)c1 (centres undefined)
Conditions	LDH release cytotoxicity [%]
0.03162 µM	-0.117
0.1 µM	-0.956
0.3162278 µM	-1.24
1 µM	-1.39
3.16228 µM	-1.45
10 µM	1.28
31.6228 µM	57.3
100 µM	84.4

CC(C)=CCC/C(C)=C\CO [(2Z)-3,7-Dimethylocta-2,6-dien-1-ol]
Conditions	LDH release cytotoxicity [%]
0.03162 µM	-0.521
0.1 µM	-0.112
0.3162278 µM	0.637
1 µM	0.207
3.16228 µM	0.25
10 µM	0.588
31.6228 µM	0.393
100 µM	1.1

O=C(NC(=O)c1cc(F)c(F)cc1Cl)Nc1cc(F)ccc1N1CCC(C(=O)O)CC1 [AVE2865]
Conditions	LDH release cytotoxicity [%]
0.01581 µM	0.296
0.05 µM	-1.08
0.1581139 µM	-1.31
0.5 µM	-0.965
1.5811388 µM	-1.15
5 µM	-0.168
15.8114 µM	0.386
50 µM	0.68

Cc1cc2c(cc1C(F)(F)F)N(C(=O)Nc1ccc(Oc3cccnc3C)nc1)CC2
Conditions	LDH release cytotoxicity [%]
0.0295673 µM	-7.63
0.0935 µM	-7.9
0.295673 µM	-7.01
0.935 µM	-8.47
2.95673 µM	-7.66
9.35 µM	-6.19
29.5673 µM	68.937
93.5 µM	72.5

CNS(=O)(=O)c1cc(C(=O)N2CCC(CCN3C4CCC3CC(n3c(C)nc5ccccc53)C4)(c3cccc(F)c3)CC2)c(Cl)cc1F (centres undefined)
Conditions	LDH release cytotoxicity [%]
0.03162 µM	-1.92
0.1 µM	-0.773
0.3162278 µM	-1.36
1 µM	-1.37
3.16228 µM	-1.08
10 µM	-0.27
31.6228 µM	10.5
100 µM	23.1

COc1cc(OC)nc(Sc2cccc(Cl)c2C(=O)O)n1 [Pyrithiobac-sodium]
Conditions	LDH release cytotoxicity [%]
0.03162 µM	-1.21
0.1 µM	-0.445
0.3162278 µM	-0.467
1 µM	-0.953
3.16228 µM	-0.133
10 µM	0.758
31.6228 µM	0.654
100 µM	2.53

CCSC(=O)N(CC)C1CCCCC1 [Cycloate]
Conditions	LDH release cytotoxicity [%]
0.03162 µM	-0.645
0.1 µM	-0.297
0.3162278 µM	-0.471
1 µM	-0.678
3.16228 µM	0.089
10 µM	0.922
31.6228 µM	0.446
100 µM	1.91

CN1C(=O)CCC1c1cccnc1 (centres undefined) [Cotinine]
Conditions	LDH release cytotoxicity [%]
0.03162 µM	-0.994
0.1 µM	-2.34
0.3162278 µM	-0.492
1 µM	-1.31
3.16228 µM	-0.499
10 µM	-0.978
31.6228 µM	-0.74
100 µM	0.597

CN(C)C(=O)NC1(c2ccccc2)CCN(CCC2(c3ccc(F)c(F)c3)CN(C(=O)c3ccccc3)CCO2)CC1 (centres undefined)
Conditions	LDH release cytotoxicity [%]
0.0297254 µM	-1.81
0.094 µM	-1.79
0.297254 µM	-2.55
0.94 µM	-1.66
2.97254 µM	-1.69
9.4 µM	-1.59
29.72541 µM	0.14
94 µM	13.5

CCOCCOCCO [2-(2-Ethoxyethoxy)ethanol]
Conditions	LDH release cytotoxicity [%]
0.03162 µM	0.116
0.1 µM	-1.88
0.3162278 µM	-1.03
1 µM	-1.82
3.16228 µM	-1.06
10 µM	-0.761
31.6228 µM	-0.843
100 µM	-0.504

O=C(OCCCCCOC(=O)c1ccccc1)c1ccccc1 [Pentane-1,5-diyl dibenzoate]
Conditions	LDH release cytotoxicity [%]
0.03162 µM	-0.742
0.1 µM	-0.929
0.3162278 µM	-1.73
1 µM	-1.19
3.16228 µM	-0.893
10 µM	-0.935
31.6228 µM	-0.87
100 µM	-0.0778

CC(C)N1C(=O)N(c2ccccc2)CSC1=NC(C)(C)C [Buprofezin]
Conditions	LDH release cytotoxicity [%]
0.03162 µM	-1.37
0.1 µM	-1.93
0.3162278 µM	-1.95
1 µM	-2.46
3.16228 µM	-2.17
10 µM	-1.91
31.6228 µM	-2.33
100 µM	11.8

CC(C)(C)C(O)(CCc1ccc(Cl)cc1)Cn1cncn1 (centres undefined) [Tebuconazole]
Conditions	LDH release cytotoxicity [%]
0.03162 µM	-1.4
0.1 µM	-0.0947
0.3162278 µM	-1.08
1 µM	-1.1
3.16228 µM	-0.155
10 µM	-0.0217
31.6228 µM	1.4
100 µM	16.5

CC1=C(C(=O)Nc2ccccc2)SCCO1 [Carboxin]
Conditions	LDH release cytotoxicity [%]
0.03162 µM	-0.0118
0.1 µM	-0.836
0.3162278 µM	-1.79
1 µM	-0.232
3.16228 µM	-1.1
10 µM	-0.0461
31.6228 µM	3.07
100 µM	8.14

Nc1ccc(Cl)cc1N [4-Chloro-1,2-diaminobenzene]
Conditions	LDH release cytotoxicity [%]
0.03162 µM	-0.924
0.1 µM	-0.99
0.3162278 µM	-1.38
1 µM	-1.19
3.16228 µM	-0.451
10 µM	-0.557
31.6228 µM	-0.208
100 µM	-0.194

C=CCOC(=O)C(C)(C)OC(=O)c1cc(-n2c(=O)cc(C(F)(F)F)n(C)c2=O)ccc1Cl [Butafenacil]
Conditions	LDH release cytotoxicity [%]
0.0317809 µM	-1.79
0.1005 µM	-0.9
0.317809 µM	-0.684
1.005 µM	-2.04
3.17809 µM	-1.27
10.05 µM	-0.764
31.7809 µM	-0.16
100.5 µM	1.19

CCC(C)c1ccccc1O (centres undefined) [2-(Butan-2-yl)phenol]
Conditions	LDH release cytotoxicity [%]
0.031623 µM	-0.239
0.1 µM	-1.12
0.316228 µM	-2.25
1 µM	-2.96
3.16228 µM	-3.27
10 µM	-1.71
31.6228 µM	-1.22
100 µM	0.802
